Some test systems named below: RPMI-8226 leukemia; NCI-H460 lung; PC-3 prostate; HT29 colon; SK-MEL-2 melanoma; U251 CNS; CAKI-1 renal; OVCAR-8 ovarian; UACC-257 melanoma; K-562 leukemia; HCT-116 colon; BT-549 breast; SK-MEL-28 melanoma; HL-60(TB) leukemia; SF-295 CNS; A498 renal.
Common to all, as to assay: growth of human tumour cells (NCI), 48 h

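Compound exposure: 48 hours, 5 concentrations, 96-well plates. TGI is the concentration that stops growth completely.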

Among the data in PubChem BioAssay (NCI) are TGI values, retold here.

As for `O=C1/C(=C/c2cccc([N+](=O)[O-])c2)CCCc2ccccc21`, the TGI came to 49 µM in the assay on RPMI-8226 leukemia; 34.1 µM in the assay on NCI-H460 lung; 23 µM with PC-3 prostate; 24 µM in the assay on HT29 colon; 23 µM in the assay on SK-MEL-2 melanoma; 20.9 µM in the assay on U251 CNS. Also, the TGI in the assay on CAKI-1 renal was found to be 30.1 µM; with OVCAR-8 ovarian it was 28.9 µM; with UACC-257 melanoma, 30.2 µM; in the assay with K-562 leukemia, 14.6 µM; in the assay on HCT-116 colon, 17.2 µM; in the assay on BT-549 breast, 28.1 µM. Further, the figures for the TGI in the assay with SK-MEL-28 melanoma, in the assay with HL-60(TB) leukemia and with SF-295 CNS were 28.6 µM, 21.6 µM and 27.7 µM, respectively.
In the case of `N#C/C(=C\c1ccc(Cl)cc1)c1nc2ccccc2c(=O)[nH]1`, the TGI with RPMI-8226 leukemia, in the assay with NCI-H460 lung, with PC-3 prostate, in the assay with HT29 colon, with SK-MEL-2 melanoma and in the assay on U251 CNS was above 100 µM throughout. Also, the TGI in the assay with CAKI-1 renal is above 100 µM; with OVCAR-8 ovarian, above 100 µM; in the assay with UACC-257 melanoma, above 100 µM; in the assay with K-562 leukemia, above 100 µM; in the assay with HCT-116 colon, above 100 µM; in the assay on BT-549 breast it was 69.2 µM. Further, the TGI with SK-MEL-28 melanoma, in the assay with HL-60(TB) leukemia and in the assay on SF-295 CNS was above 100 µM each time.
For `CCC(=O)N(c1ccccc1)C(C)CN1CCC(O)(c2ccccc2)CC1` (stereo unspecified), the TGI in the assay on RPMI-8226 leukemia, with PC-3 prostate, in the assay with HT29 colon, in the assay with SK-MEL-2 melanoma, with U251 CNS and in the assay on CAKI-1 renal was above 100 µM each time. Besides, the TGI with OVCAR-8 ovarian, with UACC-257 melanoma, in the assay with K-562 leukemia, with HCT-116 colon, in the assay on BT-549 breast and with SK-MEL-28 melanoma was above 100 µM throughout. Further, the TGI in the assay on A498 renal, in the assay on HL-60(TB) leukemia and in the assay with SF-295 CNS was above 100 µM in each case.
Regarding `CC1=NC(=Cc2ccc(Cl)cc2)C(=O)N1n1c(-c2ccccc2)nc2ccccc2c1=O`, the TGI with RPMI-8226 leukemia was above 100 µM; in the assay with NCI-H460 lung it was 60.7 µM; with PC-3 prostate, above 100 µM; in the assay with HT29 colon it was above 100 µM; with CAKI-1 renal, 69.1 µM; with OVCAR-8 ovarian, above 100 µM. The TGI in the assay with UACC-257 melanoma is 75.5 µM; in the assay on K-562 leukemia, above 100 µM; in the assay on HCT-116 colon, above 100 µM; in the assay on BT-549 breast, above 100 µM; with SK-MEL-28 melanoma, above 100 µM; with A498 renal, 63.4 µM. The results for the TGI with HL-60(TB) leukemia and in the assay on SF-295 CNS were 78.6 µM and above 100 µM, respectively.
As for `O=c1nc2n(CCO)c(-c3ccccc3)c(-c3ccccc3)nc-2c(=O)[nH]1`, the TGI with RPMI-8226 leukemia, in the assay on NCI-H460 lung, in the assay with PC-3 prostate, with HT29 colon, in the assay on SK-MEL-2 melanoma and with U251 CNS was above 100 µM each time. Besides, the TGI in the assay with CAKI-1 renal, with OVCAR-8 ovarian, in the assay on UACC-257 melanoma, in the assay with K-562 leukemia, in the assay on HCT-116 colon and with BT-549 breast was above 100 µM each time. The TGI with SK-MEL-28 melanoma, in the assay with A498 renal and in the assay on SF-295 CNS was above 100 µM in each case.
In the case of `COc1cc(C2c3cccc4cccc(c34)C3CCC(=O)N32)cc(O)c1O` (stereo unspecified), the TGI is 30.9 µM in the assay on RPMI-8226 leukemia; above 50 µM in the assay with NCI-H460 lung; above 50 µM in the assay on PC-3 prostate; above 50 µM in the assay with HT29 colon; above 50 µM in the assay with SK-MEL-2 melanoma; above 50 µM in the assay on U251 CNS. The TGI is above 50 µM in the assay on OVCAR-8 ovarian; above 50 µM in the assay on UACC-257 melanoma; 40.3 µM with K-562 leukemia; above 50 µM in the assay with HCT-116 colon; above 50 µM with BT-549 breast; above 50 µM with SK-MEL-28 melanoma. Also, the TGI in the assay on A498 renal, in the assay on HL-60(TB) leukemia and in the assay on SF-295 CNS was above 50 µM throughout.
As to `CCCOC(=O)c1cc(C(=CCC[C@H]2CC[C@@]3(C)[C@@H](CC[C@@H]4[C@@H]3CC[C@]3(C)[C@@H](C(C)CCCC(C)C)CC[C@@H]43)C2)c2cc(Cl)c(O)c(C(=O)OCCC)c2)cc(Cl)c1O` (stereo partly specified), the TGI with RPMI-8226 leukemia, with NCI-H460 lung, with PC-3 prostate, in the assay on HT29 colon, with SK-MEL-2 melanoma and in the assay with U251 CNS was above 50 µM throughout. In addition, the TGI in the assay with CAKI-1 renal is above 50 µM; in the assay with OVCAR-8 ovarian it was above 50 µM; in the assay on K-562 leukemia, above 5 µM; with HCT-116 colon, above 50 µM; in the assay with BT-549 breast, above 50 µM; in the assay with A498 renal, above 50 µM. The molecule also registered a TGI in the assay on HL-60(TB) leukemia above 50 µM.
For `COc1ccc(NC=O)c(C(O)CCNC(C)=O)c1` (stereo unspecified), the TGI in the assay on RPMI-8226 leukemia, with NCI-H460 lung, with PC-3 prostate, with HT29 colon, in the assay with SK-MEL-2 melanoma and in the assay with U251 CNS was above 100 µM in each case. Besides, the TGI in the assay on CAKI-1 renal, in the assay with OVCAR-8 ovarian, with UACC-257 melanoma, in the assay on K-562 leukemia, in the assay on HCT-116 colon and in the assay with BT-549 breast was above 100 µM each time. Also, the TGI in the assay on A498 renal, in the assay with HL-60(TB) leukemia and in the assay with SF-295 CNS was above 100 µM throughout.
With `Nc1ncc2c(n1)-c1ccccc1OC2NC1CC1` (stereo unspecified), the TGI in the assay on RPMI-8226 leukemia, in the assay with NCI-H460 lung, in the assay with PC-3 prostate, with HT29 colon, in the assay with SK-MEL-2 melanoma and with U251 CNS was above 100 µM throughout. Further, the TGI in the assay with CAKI-1 renal, in the assay on OVCAR-8 ovarian, in the assay on UACC-257 melanoma, with HCT-116 colon, with BT-549 breast and with A498 renal was above 100 µM in each case. For the same molecule, the TGI with HL-60(TB) leukemia and in the assay on SF-295 CNS was above 100 µM in each case.
